Patent publication US7495018B2, “Substituted 1,3-thiazole compounds, their production and use” (Takeda Pharmaceutical Company Limited, priority 2000, dated 2009)

With `CSc1ccc(-c2nc(-c3cccc(C)c3)c(-c3ccnc(N)c3)s2)cc1` [Example Compound 23-2, 4-[4-(3-methylphenyl)-2-[4-(methylthio)phenyl]-1,3-thiazol-5-yl]-2-pyridylamine] the melting point was 181 to 183 °C.
`Cc1cccc(-c2nc(-c3ccc(S(C)(=O)=O)cc3)sc2-c2ccnc(NCC3CCCCC3)c2)c1` [Example Compound 37-3, N-cyclohexylmethyl-4-[4-(3-methylphenyl)-2-(4-methylsulfonylphenyl)-1,3-thiazol-5-yl]-2-pyridylamine] gave a melting point of 157 to 159 °C.
Molecule `Cc1cc(C)cc(-c2nc(NC(=O)c3ccc(Cl)nc3)sc2-c2ccnc(C)c2)c1` [Example Compound 44-3, 6-chloro-N-[4-(3,5-dimethylphenyl)-5-(2-methyl-4-pyridyl)-1,3-thiazol-2-yl]nicotinamide] has a melting point of 271 to 273 °C.
For `CCCc1nc(-c2cccc(C)c2)c(-c2ccnc(N)c2)s1` [Example Compound 18-4, 4-[4-(3-methylphenyl)-2-propyl-1,3-thiazol-5-yl]-2-pyridylamine], the melting point was 113 to 115 °C.
For `Cc1cccc(-c2nc(-c3ccc(S(C)(=O)=O)cc3)sc2-c2ccnc(N3CCN(C)CC3)c2)c1` [Example Compound 37-5, 4-(3-methylphenyl)-5-[2-(4-methyl-1-piperazinyl)-4-pyridyl]-2-(4-methylsulfonylphenyl)-1,3-thiazole], the melting point was 153 to 154 °C.
Molecule `CCc1nc(-c2cccc(C(C)C)c2)c(-c2ccnc(N)c2)s1` [Example Compound 20-10, 4-[2-ethyl-4-[3-(1-methylethyl)phenyl]-1,3-thiazol-5-yl]-2-pyridylamine] has a melting point of 80 to 81 °C.
`Cc1cccc(N2C=C(c3cc(C)nc(C)c3)SC2N)c1` (stereo not drawn) [Example Compound 7-6, [5-(2,6-dimethyl-4-pyridyl)-3-(3-methylphenyl)-1,3-thiazol-2-yl]amine] gave a melting point of 214 to 216 °C.
In the case of `CCCCCC(=O)Nc1cc(-c2sc(CC)nc2-c2cccc(Cl)c2)ccn1` [Example 88-2, N-[4-[4-(3-chlorophenyl)-2-ethyl-1,3-thiazol-5-yl]-2-pyridyl]hexanamide], the melting point is reported as 114 to 115 °C.
`CC(=O)Nc1cc(-c2sc(C(C)O)nc2-c2cccc(C)c2)ccn1` (stereo not drawn) [Example 111-1, N-[4-[2-(1-hydroxyethyl)-4-(3-methylphenyl)-1,3-thiazol-5-yl]-2-pyridyl]acetamide] showed a melting point of 99 to 102 °C.
With `Cc1cccc(-c2nc(-c3ccc(S(C)(=O)=O)cc3)sc2N2C=CC=CC2N2CCCCC2)c1` (stereo not drawn) [Example Compound 35-2, 4-(3-methylphenyl)-2-(4-methylsulfonylphenyl)-5-(2-piperidino-1-pyridyl)-1,3-thiazole] the melting point was 155 to 157 °C.
`CNc1nc(-c2cccc(C)c2)c(-c2ccnc(C)c2)s1` [Example Compound 9, N-methyl-[4-(3-methylphenyl)-5-(2-methyl-4-pyridyl)-1,3-thiazol-2-yl]amine] showed a melting point of 164 to 165 °C.
`Cc1cccc(-c2nc(-c3ccc(S(C)(=O)=O)cc3)sc2-c2ccnc(NC3CCCCC3)c2)c1` [Example Compound 36-5, N-cyclohexyl-4-[4-(3-methylphenyl)-2-(4-methylsulfonylphenyl)-1,3-thiazol-5-yl]-2-pyridylamine] gave a melting point of 197 to 199 °C.
In the case of `Cc1cccc(-c2nc(C(=O)O)sc2-c2ccnc(N)c2)c1` [Example Compound 25-1, 5-(2-amino-4-pyridyl)-4-(3-methylphenyl)-1,3-thiazole-2-carboxylic acid], the melting point is reported as 156 to 157 °C.
Work on `Cc1cccc(-c2nc(C)sc2-c2ccnc(N)c2)c1` [Example Compound 23-1, 4-[2-methyl-4-(3-methylphenyl)-1,3-thiazol-5-yl]-2-pyridylamine] yielded a melting point of 152 to 153 °C.
Work on `Nc1nc(-c2cccc(Cl)c2)c(-c2ccnc(N3CCCCC3)c2)s1` [Example Compound 35-1, [4-(3-chlorophenyl)-5-(2-piperidino-4-pyridyl)-1,3-thiazol-2-yl]amine] yielded a melting point of 206 to 208 °C.
`Cc1cc(C)cc(-c2nc(-c3ccc(S(C)(=O)=O)cc3)sc2-c2ccnc(C)c2)c1` [Example Compound 58-1, 4-(3,5-dimethylphenyl)-5-(2-methyl-4-pyridyl)-2-(4-methylsulfonylphenyl)-1,3-thiazole] gave a melting point of 196 to 197 °C.
`Cc1cccc(-c2nc(N)sc2-c2ccnc(N3CCOCC3)c2)c1` [Example Compound 34-1, [4-(3-methylphenyl)-5-(2-morpholino-4-pyridyl)-1,3-thiazol-2-yl]amine] gave a melting point of 188 to 189 °C.
For `CCC(=O)Nc1cc(-c2sc(CC)nc2-c2cccc(C(C)C)c2)ccn1` [Example 84-7, N-[4-[2-ethyl-4-[3-(1-methylethyl)phenyl]-1,3-thiazol-5-yl]-2-pyridyl]propionamide], the melting point was 93 to 94 °C.
Work on `CSc1ccc(-c2nc(-c3cccc(C)c3)c(-c3ccnc(NC(C)=O)c3)s2)cc1` [Example 82-12, N-[4-[4-(3-methylphenyl)-2-[4-(methylthio)phenyl]-1,3-thiazol-5-yl]-2-pyridyl]acetamide] yielded a melting point of 181 to 182 °C.
In the case of `CCCc1nc(-c2cccc(Cl)c2)c(-c2ccnc(N)c2)s1` [Example Compound 21-1, 4-[4-(3-chlorophenyl)-2-propyl-1,3-thiazol-5-yl]-2-pyridylamine], the melting point is reported as 99 to 100 °C.
With `CCC(=O)Nc1cc(-c2sc(C(C)(F)F)nc2-c2cccc(Cl)c2)ccn1` [Example 102-4, N-[4-[4-(3-chlorophenyl)-2-(1,1-difluoroethyl)-1,3-thiazol-5-yl]-2-pyridyl]propionamide] the melting point was 141 to 142 °C.
`Cc1cccc(-c2nc(NC(=O)c3ccc(Cl)nc3)sc2-c2ccnc(NC3CCCC3)c2)c1` [Example Compound 44-2, 6-chloro-N-[5-(2-cyclopentylamino-4-pyridyl)-4-(3-methylphenyl)-1,3-thiazol-2-yl]nicotinamide] showed a melting point of 211 to 212 °C.
Work on `CC(C)(C)C(=O)Nc1cc(-c2sc(-c3ccc(S(C)(=O)=O)cc3)nc2-c2cccc(Cl)c2)ccn1` [Example Compound 58-8, N-[4-[4-(3-chlorophenyl)-2-(4-methylsulfonylphenyl)-1,3-thiazol-5-yl]-2-pyridyl]pivalamide] yielded a melting point of 122 to 123 °C.
In the case of `Cc1cccc(-c2nc(N(C)C(=O)c3cccnc3)sc2-c2ccnc(NC3CCCCC3)c2)c1` [Example Compound 42-8, N-[5-(2-cyclohexylamino-4-pyridyl)-4-(3-methylphenyl)-1,3-thiazol-2-yl]-N-methylnicotinamide], the melting point is reported as 147 to 148 °C.
Work on `Cc1cc(C)cc(-c2nc(NC(=O)c3ccc(C)nc3)sc2-c2ccnc(C)c2)c1` [Example Compound 46-3, N-[4-(3,5-dimethylphenyl)-5-(2-methyl-4-pyridyl)-1,3-thiazol-2-yl]-6-methylnicotinamide] yielded a melting point of 252 to 253 °C.
In the case of `Cc1cccc(-c2nc(NC(=O)Nc3ccccc3)sc2-c2ccnc(NC3CCCCC3)c2)c1` [Example Compound 53-2, N-[5-(2-cyclohexylamino-4-pyridyl)-4-(3-methylphenyl)-1,3-thiazol-2-yl]-N′-phenylurea], the melting point is reported as 198 to 199 °C.
For `CCc1nc(-c2ccccc2)c(-c2ccnc(NC(C)=O)c2)s1` [Example Compound 82-1, N-[4-(2-ethyl-4-phenyl-1,3-thiazol-5-yl)-2-pyridyl]acetamide], the melting point was 175 to 176 °C.
Work on `Cc1cccc(-c2nc(Cc3ccccc3)sc2-c2ccnc(C)c2)c1` [Example Compound 14-7, 4-(3-methylphenyl)-5-(2-methyl-4-pyridyl)-2-(phenylmethyl)-1,3-thiazole] yielded a melting point of 82 to 84 °C.
With `CSc1ccc(-c2nc(-c3cccc(C)c3)c(-c3ccnc(C)c3)s2)cc1` [Example Compound 16-1, 4-(3-methylphenyl)-5-(2-methyl-4-pyridyl)-2-[4-(methylthio)phenyl]-1,3-thiazole] the melting point was 119 to 122 °C.
`CCc1nc(-c2ccc(Cl)cc2)c(-c2ccnc(N)c2)s1` [Example Compound 20-7, 4-[4-(4-chlorophenyl)-2-ethyl-1,3-thiazol-5-yl]-2-pyridylamine] showed a melting point of 136 to 137 °C.
Molecule `Cc1cccc(-c2nc(NC(=O)c3cccnc3)sc2-c2ccnc(C)c2)c1` [Example Compound 41, N-[4-(3-methylphenyl)-5-(2-methyl-4-pyridyl)-1,3-thiazol-2-yl]nicotinamide] has a melting point of 175 to 178 °C.
For `Cc1cc(-c2sc(N)nc2-c2ccc(F)cc2)ccn1` [Example Compound 7-8, [4-(4-fluorophenyl)-5-(2-methyl-4-pyridyl)-1,3-thiazol-2-yl]amine], the melting point was 233 to 234 °C.
For `CC(=O)Nc1cc(-c2sc(C)nc2-c2cccc(C)c2)ccn1` [Example 82-10, N-[4-[2-methyl-4-(3-methylphenyl)-1,3-thiazol-5-yl]-2-pyridyl]acetamide], the melting point was 162 to 163 °C.
For `CCNC(=O)Nc1cc(-c2sc(CC)nc2-c2cccc(C)c2)ccn1` [Example 108, N-ethyl-N′-[4-[2-ethyl-4-(3-methylphenyl)-1,3-thiazol-5-yl]-2-pyridyl]urea], the melting point was 177 to 180 °C.
`Cc1cccc(-c2nc(-c3ccc(S(C)(=O)=O)cc3)sc2-c2cc(C)nc(C)c2)c1` [Example Compound 58-2, 5-(2,6-dimethyl-4-pyridyl)-4-(3-methylphenyl)-2-(4-methylsulfonylphenyl)-1,3-thiazole] gave a melting point of 182 to 184 °C.
`COc1ccc(-c2nc(C)sc2-c2ccnc(N)c2)cc1` [Example Compound 23-3, 4-[4-(4-methoxyphenyl)-2-methyl-1,3-thiazol-5-yl]-2-pyridylamine] gave a melting point of 140 to 141 °C.
Molecule `COc1ncccc1C(=O)Nc1nc(-c2cccc(C)c2)c(-c2ccnc(C)c2)s1` [Example Compound 49, 2-methoxy-N-[4-(3-methylphenyl)-5-(2-methyl-4-pyridyl)-1,3-thiazol-2-yl]nicotinamide] has a melting point of 169 to 170 °C.
Molecule `CCc1nc(-c2ccc(Cl)cc2)c(-c2ccnc(NC(=O)CC3CCCC3)c2)s1` [Example 90-2, N-[4-[4-(4-chlorophenyl)-2-ethyl-1,3-thiazol-5-yl]-2-pyridyl]cyclopentylacetamide] has a melting point of 149 to 150 °C.
In the case of `Cc1cc(C)cc(-c2nc(NC(=O)Nc3ccccc3)sc2-c2cc(C)nc(C)c2)c1` [Example Compound 53-1, N-[4-(3,5-dimethylphenyl)-5-(2,6-dimethyl-4-pyridyl)-1,3-thiazol-2-yl]-N′-phenylurea], the melting point is reported as 219 to 222 °C.
